In EP0942896B1, “SUBSTITUTED PHENOLS AND THIOPHENOLS USEFUL AS ANTIOXIDANT AGENTS” (Aventis Pharmaceuticals Inc., priority 1996, dated 1998):
Where two headings read alike, the source gives them in different places.

Experiments:
[1] = HPLC quantitation of compound and metabolite concentration in rat serum and liver; format: in vivo; conditions: male, Sprague-Dawley, oral, 0.3 % in chow, diet 0.3%, 4 days, mean N = 5
Text: (§1) A typical experiment consists of 4-6 groups of rats (N = 5 per group) with I group being a control which receives no MDL compound and the other groups being treated with 0.3% MDL compound. Some of the compounds are either repeated at 0.3% or evaluated again at the lower dose of 0.1%. House Male Sprague-Dawley rats, 50-100 g, (Harlan Laboratories, Indianapolis, IN) in groups of 5, feeding ad libitum water and Purina Rodent chow (#5002) with or without MDL compound as a dietary admixture for 4 days. Make dietary admixtures (0.3%) by mixing 1.2 grams of an MDL compound with 400 grams of Purina rodent chow (#5002). Mix the MDL compound with approximately 50 grams of food using a mortar and pestle. This is added to the remainder of the food and mixed for 3 hours on a rotary mixer. In the morning of day 5, anesthetize non-fasted rats with carbon dioxide, and collect blood by cardiac puncture. Sacrifice rats by cervical dislocation. Record body weights and liver weights in grams. Record food consumption as grams • day^-1 • rat^-1. Deaths are recorded as mortality. Use aliquots of fresh serum for clinical chemistries, thiobarbituric acid reactive substances (TBARS) and conjugated diene measurements. Freeze aliquots of serum (∼ 0.5mL) and whole livers at -20°C for compound and metabolite concentration determination at a later time.
Determine serum and liver concentrations of parent compound and the metabolites, bisphenol and diphenoquinone, by reverse phase HPLC using a Waters 990 Powerline system. Homegenize livers (1 gram samples) with 5.0mL PBS, pH 7.4, using a Polytron tissue homogenizer at setting 5 for 20-30 seconds. Extract serum or liver homogenates as follows: add 100µL of either serum or homogenate to 2.0mL diethyl ether: ethanol (3:1) while vortexing the tube. Cap the sample tubes and centrifuge for 10 min at 5°C at 3500 rpm in a Beckman GPKR centrifuge with a GH 3.7 rotor. Transfer the supernatants to clean tubes and dry under N2. Reconstitute samples with 200µL of acetonitrile : hexane : 0.1 M ammonium acetate (90: 6.5 : 3.5, by vol.). Then, inject 100µL onto a Waters Deltapak C18-300 Å column, and elute with an 83% acetonitrile : 17% water mobile phase at a flow rate of 1.5mL/min. Record absorbances at the wavelengths of 240, 254, and 420nm. Calculate compound concentrations from known quantities of authentic parent compounds after correction for recovery. […]. Calculate concentrations as µg/mL of serum and µg/g of liver.

[2] = tested on: Male Sprague-Dawley Rats; assay: Serum clinical chemistries in rats fed compound as dietary admixture; format: in vivo; conditions: % of control, diet 0.3%, 4 days, N = 5; for ALT: alanine aminotransferase in rat serum; for ALP: alkaline phosphatase in rat serum; for AST: aspartate aminotransferase in rat serum; for GLUC: glucose in rat serum; for response vs control in vivo at 0.3 % in diet: feed or water, 96 h
Text: as §1
Allow blood to clot at room temperature for 30 minutes. Obtain serum after centrifugation for 10 min at 4°C at 3000 rpm in a Beckman J-6M/E centrifuge with a JS-4.2 rotor. Analyze fresh serum by a COBAS MIRA S autoanalyzer (Roche Diagnostics) using Roche diagnostic reagents for the following clinical chemistry measurements: alkaline phosphatase (ALP, kit # 44553), alanine transaminase (ALT, kit # 42375), aspartate aminotransferase (AST, kit # 42381), total cholesterol (CHOL, kit # 44334), triglyceride (TG, kit # 44120), and glucose (GLU, kit # 44558). Calculate ALP, ALT, and AST as units/L. Calculate cholesterol, triglycerides, and glucose as mg/dL.

[3] = tested on: VCAM-1; assay: Inhibition of cytokine-induced VCAM-1 expression in human aortic smooth muscle cells (cell ELISA); format: cell-based; conditions: HASMC, interleukin-4 stimulated, average of three runs, read-out: VCAM-1 (% inh. 50 µM)
Protocol: Plate proliferating human umbilical vein endothelial cells (HUVEC) or human aortic smooth muscle cells (HASMC) from Clonetics (San Diego, CA) onto 96-well plates in 100 µL medium per well at 20,000 cells per cm^2. Maintain the cultures in growth medium (EGM or SMGM2, Clonetics, San Diego, CA) for two days prior to addition of cytokines or drugs. Add cytokines plus or minus compounds for 20 to 24 hours prior to analysis for adhesion molecule levels. Add tumor necrosis factor (Genzyme, Cambridge, MA) to cultures at 500-1000 units/mL to stimulate ICAM-1 expression. Add interleukin-4 (GIBCO-BRL, Gaithersburg, MD) to cultures at 100-200 pg/mL to stimulate VCAM-1 expression. […] Remove the culture medium, and wash the monolayers twice with Hanks buffered saline solution (HBSS) at room temperature. Add the primary antibody (anti-human VCAM-1 from Upstate Biotechnology, Inc., Lake Placid, NY or anti-human ICAM-1 from Immunotech, Inc., Westbrook, ME) to each well (1 µg/mL in HBSS plus 5% newborn calf serum, GIBCO-BRL, Gaithersburg, MD) and incubate at 37°C for 1 hr. Wash the wells twice with HBSS, then add 100 µL of a 1/1000 dilution of goat anti-mouse IgG conjugated to horse radish peroxidase (BioRad, Hercules, CA) in HBSS plus 5% newborn calf serum to each well and incubated for 1 hr at 37°C. Wash the wells three times with HBSS, then add 100 µL of TMB substrate (BioRad, Hercules, CA) to each well. Stop the reaction after blue color develops by addition of 50 µL of IN H2SO4. Measure absorbance at 450 nm with a plate reader.
Table 1 summarizes the ability of selected compounds of this invention to inhibit VCAM-1 and ICAM-1 using human aortic smooth muscle cells (HASMC). In these experiments, the cells were coincubated with interleukin-4 to stimulate VCAM-1 expression and with tumor necrosis factor-alpha to stimulate ICAM-1 expression.

[4] = parent compound concentration in rat liver, read-out: Liver Parent
[5] = parent compound concentration in rat serum, read-out: Serum Parent
[6] = total cholesterol in rat serum, read-out: CHOL
[7] = triglycerides in rat serum, read-out: TRIG

Compound | concentration at 5 day [1, 4] | concentration at 5 day [1, 5] | ALT [2] | ALP [2] | AST [2] | GLUC [2] | response vs control in vivo at 0.3 % in diet [2, 6] | response vs control in vivo at 0.3 % in diet [2, 7] | inhibition at 50 µM [3]
CC(C)=CCC[C@H](C)CCOc1cc(C(C)(C)C)c(O)c(C(C)(C)C)c1 [MDL 103,294, Phenol, 2,6-bis(1,1-dimethylethyl)-4-[(3,7-dimethyl-6-octenyl)oxy]-, (S)-] | 64600 ng/g | 21700 ng/mL | 132% | 124% | 88% | 103% | 102% | 56% | –
CC(C)=CCCC(C)CCSc1cc(C(C)(C)C)c(O)c(C(C)(C)C)c1 (centres unmarked) [MDL 103,960, Phenol, 2,6-bis(1,1-dimethylethyl)-4-[(3,7-dimethyl-6-octenyl)thio]-] | 47300 ng/g | 8700 ng/mL | 117% | 125% | 102% | 110% | 113% | 80% | 33.9 ± 6%
CC(C)CCCC(C)CCOc1ccc(O)c(C(C)(C)C)c1 (centres unmarked) [MDL 104,191, Phenol, 2-(1,1-dimethylethyl)-4-[(3,7-dimethyloctyl)oxy]-] | 16100 ng/g | 6900 ng/mL | 149% | 81% | 146% | 106% | 109% | 112% | 42.9 ± 7%
CC(C)=CCC[C@@H](C)CCOc1cc(C(C)(C)C)c(O)c(C(C)(C)C)c1 [MDL 104,535, Phenol, 2,6-bis(1,1-dimethylethyl)-4-[(3,7-dimethyl-6-octenyl)oxy]-,(R)-] | 60300 ng/g | 16300 ng/mL | 108% | 151% | 94% | 112% | 103% | 60% | 26.4 ± 14%
